Columns and labels:
[1] = molecular target: HIV-1 integrase (IN) (Human immunodeficiency virus type 1 group M subtype B, UniProt P12497); test: HTRF-based LEDGF/p75 independent 3′-processing assay; type: biochemical
[2] = system: HEK293T cells; details: without viral infection (Fig. 4B)

Structure (SMILES) | inhibition of IN 3′processing activity in the absence of LEDGF/p75 (in words) [1] | cellular toxicity in words [2]
O=C(O)c1cc(N(Cc2ccccc2)Cc2ccccc2)ccc1O [Compound 1, 5-(Dibenzylamino)-2-hydroxybenzoic acid] | weak inhibitions | 
O=C(O)c1cc(N(Cc2ccccc2Cl)Cc2ccccc2Cl)ccc1O [Compound 2, 5-[Bis(2-chlorobenzyl)amino]-2-hydroxybenzoic acid] | weak inhibitions | significant cellular toxicity
O=C(O)c1cc(N(Cc2ccccc2F)Cc2ccccc2F)ccc1O [Compound 5, 5-[Bis(2-fluorobenzyl)amino]-2-hydroxybenzoic acid] | weak inhibitions | 
O=C(O)c1cc(N(Cc2cccc(F)c2)Cc2cccc(F)c2)ccc1O [Compound 6, 5-[Bis(3-fluorobenzyl)amino]-2-hydroxybenzoic acid] | weak inhibitions | 
